The values that follow come from patent publication US10065970B2 (Genentech, Inc., priority 2015, dated 2018).

Some results are limits rather than exact numbers.

The experiment deals with PI3Kα (alpha) (Homo sapiens (Human), UniProt P42336). The experiment in a line: p110α (alpha) PI3K Binding Assay (ADP-Glo lipid kinase reaction). It is filed as biochemical. As to conditions: PI3K alpha 0.2 nM, ATP 40 μM, PIP2:3PS 50 μM, 120 min, room temperature; Ki by Morrison Equation; read-out: PI3Kα-(alpha) ATP (Ki) micromolar. A digest of the protocol: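 Enzyme with PIP2:3PS lipid substrate and ATP/MgCl2 in 50 mM HEPES, 50 mM NaCl, 3 mM MgCl2, 0.01% BSA, 1% DMSO, 120 min at room temperature. ADP formed detected by ADP-Glo luminescence. Ki from 10-point dose-response curves via the Morrison equation.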
Chain of PI3Kα (alpha) (P42336 whole entry): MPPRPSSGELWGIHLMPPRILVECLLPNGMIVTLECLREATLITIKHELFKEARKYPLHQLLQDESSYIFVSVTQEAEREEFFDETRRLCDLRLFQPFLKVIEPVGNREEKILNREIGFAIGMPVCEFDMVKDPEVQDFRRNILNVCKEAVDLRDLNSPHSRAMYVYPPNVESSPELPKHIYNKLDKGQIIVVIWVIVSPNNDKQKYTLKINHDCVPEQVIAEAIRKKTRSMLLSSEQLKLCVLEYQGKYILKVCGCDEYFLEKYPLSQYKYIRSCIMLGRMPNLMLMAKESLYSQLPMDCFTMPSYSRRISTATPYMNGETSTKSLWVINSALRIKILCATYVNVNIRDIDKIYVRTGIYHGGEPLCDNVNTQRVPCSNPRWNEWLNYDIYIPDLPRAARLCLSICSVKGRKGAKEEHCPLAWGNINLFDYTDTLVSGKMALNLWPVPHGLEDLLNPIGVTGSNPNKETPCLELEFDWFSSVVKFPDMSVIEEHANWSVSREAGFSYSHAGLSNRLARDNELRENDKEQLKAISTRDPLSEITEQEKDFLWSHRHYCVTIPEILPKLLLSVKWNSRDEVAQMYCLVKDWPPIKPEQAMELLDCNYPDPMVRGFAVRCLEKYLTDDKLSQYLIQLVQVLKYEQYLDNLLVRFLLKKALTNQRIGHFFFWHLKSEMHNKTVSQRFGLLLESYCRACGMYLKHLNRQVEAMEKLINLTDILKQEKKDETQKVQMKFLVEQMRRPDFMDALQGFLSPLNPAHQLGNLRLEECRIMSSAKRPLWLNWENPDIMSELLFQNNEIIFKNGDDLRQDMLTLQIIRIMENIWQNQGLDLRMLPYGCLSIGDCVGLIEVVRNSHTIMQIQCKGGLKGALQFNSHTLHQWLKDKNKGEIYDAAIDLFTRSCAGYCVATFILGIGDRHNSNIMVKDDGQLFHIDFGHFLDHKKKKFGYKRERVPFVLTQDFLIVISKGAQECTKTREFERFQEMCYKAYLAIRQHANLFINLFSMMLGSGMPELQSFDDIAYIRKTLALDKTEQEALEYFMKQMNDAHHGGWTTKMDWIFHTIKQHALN
Chain of PI3Kα (alpha) (P27986 whole entry partner): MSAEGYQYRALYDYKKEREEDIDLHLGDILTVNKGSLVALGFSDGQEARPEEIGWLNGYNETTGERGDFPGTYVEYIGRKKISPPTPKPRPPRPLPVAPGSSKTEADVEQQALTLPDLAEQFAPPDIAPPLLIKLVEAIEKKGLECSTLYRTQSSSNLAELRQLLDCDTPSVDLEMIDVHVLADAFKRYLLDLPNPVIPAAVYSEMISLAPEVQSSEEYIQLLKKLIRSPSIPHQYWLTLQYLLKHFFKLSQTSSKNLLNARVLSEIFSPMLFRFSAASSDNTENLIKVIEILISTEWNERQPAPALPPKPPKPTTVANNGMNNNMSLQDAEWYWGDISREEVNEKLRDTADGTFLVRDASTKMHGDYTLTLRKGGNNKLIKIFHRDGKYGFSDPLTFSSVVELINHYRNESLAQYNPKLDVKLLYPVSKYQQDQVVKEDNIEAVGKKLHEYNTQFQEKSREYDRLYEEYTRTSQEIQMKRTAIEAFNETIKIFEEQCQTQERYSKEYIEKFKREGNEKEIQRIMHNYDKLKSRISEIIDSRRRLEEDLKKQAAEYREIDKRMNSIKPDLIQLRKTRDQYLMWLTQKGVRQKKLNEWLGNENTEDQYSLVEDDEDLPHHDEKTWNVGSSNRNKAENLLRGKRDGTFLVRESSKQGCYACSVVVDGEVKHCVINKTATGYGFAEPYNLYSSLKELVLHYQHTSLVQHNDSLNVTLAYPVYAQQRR
For orientation: ADP-Glo turns the ADP formed in a reaction into a luminescent signal.
Regarding `NC(=O)[C@@H]1CCCN1c1cc2c3c(c1)nc(-c1ccc(-c4ncsn4)cc1)n3CCCO2` [Example 227, (S)-1-(1-(4-(1,2,4-Thiadiazol-3-yl)phenyl)-8,9-dihydro-7H-6-oxa-2,9a-diazabenzo[cd]azulen-4-yl)pyrrolidine-2-carboxamide], the Ki worked out at 8.21 nM.

Consider `C[C@H](Oc1cc2c3c(c1)nc(-c1cc4sc(N)nc4cc1F)n3CCCCO2)C(N)=O` (single isomer, unassigned) [Example 277], for which the Ki is 0.208 nM.

On to `NC(=O)[C@H](Oc1cc2c3c(c1)nc(-c1ccc4nc(N)sc4c1)n3CCCCO2)C1CC1` (single isomer, unassigned) [Example 282], for which the inhibition constant (Ki) was 5.53 nM.

As to `NC(=O)[C@@H](Nc1cc2c3c(c1)nc(-c1cc(Cl)c4oc(N)nc4c1)n3CCCO2)C1CC1` [Example 209, (S)-2-((1-(2-Amino-7-chlorobenzo[d]oxazol-5-yl)-8,9-dihydro-7H-6-oxa-2,9a-diazabenzo[cd]azulen-4-yl)amino)-2-cyclopropylacetamide], the inhibitory constant (Ki) is 0.095 nM.

`C[C@@H](Oc1cc2c3c(c1)nc(-c1ccc4sc(N)nc4c1)n3CCCCO2)C(N)=O` (single isomer, unassigned) [Example 275]: the Ki turned out to be 0.754 nM.

Consider `Cn1cc(-c2nc3cc(N[C@H](C(N)=O)C4CC4)cc4c3n2CCCO4)ccc1=O` [Example 147, (S)-2-Cyclopropyl-2-((1-(1-methyl-6-oxo-1,6-dihydropyridin-3-yl)-8,9-dihydro-7H-6-oxa-2,9a-diazabenzo[cd]azulen-4-yl)amino)acetamide], for which the Ki was 139 nM.

For the compound `C[C@@H](Oc1cc2c3c(c1)nc(-c1ccc4oc(N)nc4c1)n3CCCCO2)C(N)=O` [Example 245, (R)-2-((1-(2-Aminobenzo[d]oxazol-5-yl)-7,8,9,10-tetrahydro-6-oxa-2,10a-diazacycloocta[cd]inden-4-yl)oxy)propanamide], the inhibition constant Ki was 0.032 nM.

Turning to `COC[C@@H](Oc1cc2c3c(c1)nc(-c1ccc4nc(N)sc4n1)n3CCCCO2)C(N)=O` (single isomer, unassigned) [Example 314], the Ki worked out at 0.737 nM.

Regarding `N#CC1CCCN(c2nc3cc(NC(C(N)=O)C4CC4)cc4c3n2CCCO4)C1` [Example 174, (S)-2-[1-(3-Cyanopiperidin-1-yl)-8,9-dihydro-7H-6-oxa-2,9a-diazabenzo[cd]azulen-4-ylamino]-2-cyclopropylacetamide], the Ki turned out to be 262 nM.

With `C[C@H](Oc1cc2c3c(c1)nc(-c1ccc(-c4ncn[nH]4)cn1)n3CCCCO2)C(N)=O` [Example 296, (S)-2-((1-(5-(1H-1,2,4-Triazol-5-yl)pyridin-2-yl)-7,8,9,10-tetrahydro-6-oxa-2,10a-diazacycloocta[cd]inden-4-yl)oxy)propanamide], the Ki was below 0.02 nM.

In the case of `Cc1nc2cc(-c3nc4cc(N5CCCC5C(N)=O)cc5c4n3CCCO5)ccc2o1` (stereo not drawn) [Example 103, 1-(1-(2-methylbenzo[d]oxazol-5-yl)-8,9-dihydro-7H-6-oxa-2,9a-diazabenzo[cd]azulen-4-yl)pyrrolidine-2-carboxamide], the Ki amounted to 16.2 nM.

For the compound `NC(=O)[C@@H](Oc1cc2c3c(c1)nc(-c1ccc4nc(N)sc4c1)n3CCCCO2)C1CC1` (single isomer, unassigned) [Example 281], the Ki came to 0.027 nM.

Take `NC(=O)[C@@H]1CCCN1c1cc2c3c(c1)nc(-c1ccc(-c4nc[nH]n4)cc1)n3CCCO2` [Example 221, (S)-1-(1-(4-(1H-1,2,4-Triazol-3-yl)phenyl)-8,9-dihydro-7H-6-oxa-2,9a-diazabenzo[cd]azulen-4-yl)pyrrolidine-2-carboxamide]: the Ki came to 0.237 nM.

`C[C@H](Oc1cc2c3c(nc(-c4ccc5oc(N)nc5c4)n3CCCO2)c1F)C(N)=O` [Example 240, (S)-2-((1-(2-Aminobenzo[d]oxazol-5-yl)-3-fluoro-8,9-dihydro-7H-6-oxa-2,9a-diazabenzo[cd]azulen-4-yl)oxy)propanamide]: the inhibition constant Ki amounted to 1.61 nM.

In the case of `CC(C)(C(N)=O)n1cc(-c2cc3c4c(c2)nc(-c2ccc5oc(N)nc5c2)n4CCCO3)cn1` [Example 124, 2-(4-(1-(2-Aminobenzo[d]oxazol-5-yl)-8,9-dihydro-7H-6-oxa-2,9a-diazabenzo[cd]azulen-4-yl)-1H-pyrazol-1-yl)-2-methylpropanamide], the Ki was found to be 0.117 nM.

Consider `CC[C@H](Oc1cc2c3c(c1)nc(-c1ccc(-c4nc[nH]n4)cc1)n3CCCCO2)C(N)=O` (single isomer, unassigned) [Example 268], for which the inhibition constant (Ki) was determined as 0.0214 nM.

In the case of `C[C@H](Oc1cc2c3c(c1)nc(-c1ccc4nc(N)nnc4c1)n3CCCCO2)C(N)=O` [Example 292, (S)-2-((1-(3-Aminobenzo[e][1,2,4]triazin-7-yl)-7,8,9,10-tetrahydro-6-oxa-2,10a-diazacycloocta[cd]inden-4-yl)oxy)propanamide], the Ki stood at 0.024 nM.

Turning to `NC(=O)[C@@H](Nc1cc2c3c(c1)nc(-c1ccc4nc(N)oc4c1)n3CCCO2)C1CC1` [Example 207, (S)-2-((1-(2-Aminobenzo[d]oxazol-6-yl)-8,9-dihydro-7H-6-oxa-2,9a-diazabenzo[cd]azulen-4-yl)amino)-2-cyclopropylacetamide], the Ki was determined as 0.988 nM.

Take `COC[C@](C)(C(N)=O)n1cc(-c2cc3c4c(c2)nc(-c2ccc5oc(N)nc5c2)n4CCCO3)cn1` (single isomer, unassigned) [Example 232]: the Ki stood at 0.311 nM.

Regarding `C[C@H](Nc1cc2c3c(c1)nc(-c1ccc(C#N)cn1)n3CCCO2)C(N)=O` [Example 110, (S)-2-((1-(5-Cyanopyridin-2-yl)-8,9-dihydro-7H-6-oxa-2,9a-diazabenzo[cd]azulen-4-yl)amino)propanamide], the inhibition constant Ki amounted to 261 nM.

As for `NC(=O)[C@@H](Nc1cc2c3c(c1)nc(-c1cccc(OC(F)F)c1)n3CCCO2)C1CC1` [Example 143, (S)-2-Cyclopropyl-2-((1-(3-(difluoromethoxy)phenyl)-8,9-dihydro-7H-6-oxa-2,9a-diazabenzo[cd]azulen-4-yl)amino)acetamide], the inhibition constant Ki turned out to be 187 nM.

For the compound `NC(=O)[C@@H](Nc1cc2c3c(c1)nc(-c1ccc4c(c1)C(=O)NC4)n3CCCO2)C1CC1` [Example 115, (S)-2-Cyclopropyl-2-((1-(3-oxoisoindolin-5-yl)-8,9-dihydro-7H-6-oxa-2,9a-diazabenzo[cd]azulen-4-yl)amino)acetamide], the inhibitory constant (Ki) amounted to 36.7 nM.

Turning to `C[C@H](Oc1cc2c3c(c1)nc(-c1cnc(-c4ncn[nH]4)c(F)c1)n3CCCCO2)C(N)=O` [Example 307, (S)-2-((1-(5-Fluoro-6-(1H-1,2,4-triazol-5-yl)pyridin-3-yl)-7,8,9,10-tetrahydro-6-oxa-2,10a-diazacycloocta[cd]inden-4-yl)oxy)propanamide], the Ki is below 0.02 nM.

On to `COC[C@@H](Oc1cc2c3c(c1)nc(-c1ccc4nc(N)sc4c1)n3CCCCO2)C(N)=O` (single isomer, unassigned) [Example 304], for which the Ki was determined as 0.127 nM.

As usually defined, the Ki is a measure of affinity in units of concentration, obtained from inhibition or displacement.
